One data set has as its system mice. Description: Acute toxicity test. The class given is in vivo, mouse. Particulars: oral. An excerpt: Based on this, the LD50 of cyclotetrasaccharide was at least 50 g/kg mouse body weight.
Data set [1] concerns Bifidobacterium adolescentis JCM 1275 strain. Description: Assimilation test. To be noted: PYF medium with 0.5% saccharide, 37° C., four days, anaerobic. In kind it is cell-based.
A further data set is described as follows: Inclusion action. In kind it is physicochemical. The procedure: To 100 g of the aqueous solution was added 2 g of methanol, 3 g of ethanol, or 4.6 g of acetic acid to be included by the cyclotetrasaccharide. Thereafter, each of the resulting solutions was filtered to remove non-inclusion products, and the filtrate was lyophilized. As a control, similar inclusion products were prepared by using “ISOELITE™ P”, a branched cyclodextrin commercialized by Maruha K.K., Tokyo, Japan, known to have inclusion ability.
To measure the amount of the inclusion products in the resulting lyophilized powders, one gram of each powder was dissolved in five milliliters water and extracted after admixing with five milliliters of diethylether. The extraction was repeated, and the resulting extracts were pooled and quantified on gas chromatography.

The nature of data set [2]: Amino carbonyl reaction with polypeptone. To be noted: 10% (w/v) with 5% (w/v) polypeptone, 120° C., minus control. In kind it is physicochemical. The procedure: Four milliliter aliquots of the resulting solution were placed in glass test tubes, sealed, and heated at 120° C. for 30 to 90 min. After allowing to stand for cooling at ambient temperature, each of the resulting solution was measured for coloration degree to examine their amino carbonyl reactivity. In parallel, as a control, a solution with only polypeptone was provided and similarly treated as above. The coloration degree was evaluated based on the level of the absorbance, measured in a cell with 1-cm light pass at a wavelength of 480 nm, minus that of the control.

The subject of data set [3] is α-isomaltosyl-transferring enzyme from Bacillus globisporus C9. The experiment in a line: Specificity to transferring acceptor. The class given is biochemical. To be noted: panose as saccharide donor, 10 units/g substrate, 3.2% (w/v), 30° C., pH 6.0, 24 hours. In short, it runs like this: (§1)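 Each candidate acceptor was mixed with panose donor at equal concentration, then given 10 units/g substrate of enzyme (purified, or partially purified for strain A19) at 3.2% (w/v) total saccharide. Reactions ran 24 hours at 30° C., pH 6.0, and were scored for presence or absence of transfer product.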

The test system of data set [4] is α-isomaltosyl-transferring enzyme from Bacillus globisporus N75. The experiment in a line: Specificity to transferring acceptor. To be noted: panose as saccharide donor, 10 units/g substrate, 3.2% (w/v), 30° C., pH 6.0, 24 hours. The class given is biochemical. In a few lines:
as §1

Data set [5] deals with α-isomaltosyl-transferring enzyme from Arthrobacter ramosus S1. Description: Specificity to transferring acceptor. Particulars: panose as saccharide donor, 10 units/g substrate, 3.2% (w/v), 30° C., pH 6.0, 24 hours. The class given is biochemical. In short, it runs like this: as §1
In data set [6] the test system is α-isomaltosyl-transferring enzyme from Bacillus globisporus C11. Description: Specificity to transferring acceptor. In kind it is biochemical. To be noted: panose as saccharide donor, 10 units/g substrate, 3.2% (w/v), 30° C., pH 6.0, 24 hours. In short, it runs like this:
as §1

In the case of `OCC1OC2OCC3O[C@H](O[C@H]4C(O)C(CO)OC(OCC5O[C@H](O[C@@H](C1O)C2O)C(O)C(O)[C@@H]5O)C4O)C(O)C(O)[C@@H]3O` (stereo partly drawn) [Cyclotetrasaccharide, cyclo{→6)-α-D-glucopyranosyl-(1→3)-α-D-glucopyranosyl-(1→6)-α-D-glucopyranosyl-(1→3)-α-D-glucopyranosyl-(1→}], the “Death at highest possible dose” value in the data set on mice is listed as “did not induce death of mouse”. In addition, the LD50 result in the data set with mice is recorded as “at least 50 g/kg mouse body weight”. Besides, the Assimilability result in data set [1] is reported as “− (negative (−) when the post culture had a pH of 6.0 or higher)”. Moreover, the “Inclusion ability relative to the branched cyclodextrin, by weight” value in the data set “Inclusion action” (higher than ISOELITE P) is “about 2 folds”. Further, the values for the Inclusion amount in “Inclusion action” (inclusion product Acetic acid), in “Inclusion action” (inclusion product Ethanol) and in “Inclusion action” (inclusion product Methanol) were 67.74 mg/g lyophilized powder, 17.26 mg/g lyophilized powder and 6.71 mg/g lyophilized powder, respectively. Moreover, the “Coloration degree (A480 nm)” value in data set [2] (heating time 0 min), in data set [2] (heating time 30 min), in data set [2] (heating time 60 min) and in data set [2] (heating time 90 min) was 0.00 in each case.

Regarding `OC[C@@H](O)[C@@H](O[C@H]1O[C@H](CO)[C@@H](O)[C@H](O)[C@H]1O)[C@H](O)[C@@H](O)CO` [Maltitol, maltitol], the “Product of transferring reaction, Enzyme of Strain C9” value in data set [3] is reported as “+ (a saccharide-transferred product was formed in an amount of over one percent but below 10% to the total sugars)”. In data set [4], the “Product of transferring reaction, Enzyme of Strain N75” value was “+ (a saccharide-transferred product was formed in an amount of over one percent but below 10% to the total sugars)”. In data set [5], the “Product of transferring reaction, Enzyme of Strain S1” value is recorded as “+ (a saccharide-transferred product was formed in an amount of over one percent but below 10% to the total sugars)”. The “Product of transferring reaction, Enzyme of Strain C11” value in data set [6] is given as “+ (a saccharide-transferred product was formed in an amount of over one percent but below 10% to the total sugars)”.

Source of the values: US7192746B2, “α-Isomaltosyltransferase, process for producing the same and use thereof” (Kabushiki Kaisha Hayashibara Seibutsu Kagaku Kenkyujo, priority 2000, dated 2007).
